Data taken from US20260183411A1, “TARGETING SORTILIN” (priority 2024, published 2026).
Where a SMILES comes first, the peptide text is derived from it.

Tests used:
[1] = test system: MDA-MB-231 xenograft; test: MDA-MB-231 murine xenograft efficacy model; type: in vivo, mouse
Protocol: Murine xenograft experiments were conducted at WuXi AppTec and/or Charles River Laboratories and the care and use of animals was conducted in accordance with the regulations of the Association for Assessment and Accreditation of Laboratory Animal Care (AAALAC). MDA-MB-231 tumor cells (ATCC, Manassas, VA, cat #HTB-26) were grown and maintained in L15 medium supplemented with 10% heat inactivated fetal bovine serum, 1% Antibiotic-Antimycotic, and L-glutamine (2 mM) at 37° C. in an atmosphere in 5% CO2, 95% air. BALB/c Nude, female, 6-8 weeks, weighing approximately 18-22 g were purchased from Vital River Laboratory Animal Technology Co., LTD. Mice were inoculated subcutaneously at the right flank with MDA-MB-231 tumor cells (e.g., triple negative breast cancer cells) (10×10^6) in 0.2 mL of PBS with Matrigel (1:1) for tumor development. Animals were randomized and treatment was started when the average tumor volume reached approximately 150-200 mm^3 for the efficacy study. Dosing volume was adjusted based on body weight and was administered at 10 mL/Kg. […] Free MMAE payload was also tested, and similarly dissolved in 25 mM Histidine 10% sucrose pH 7 and one or more of the following doses, 0.6, 0.06 mg/kg, were administered to the mice i.v. at a QW×4 schedule. Tumor sizes were measured twice weekly in two dimensions using a caliper, and the volume in mm^3 calculated using the formula: V=0.5 a×b^2, where a and b are the long and short diameters of the tumor, respectively. TGI was calculated for each group using the formula: TGI (%)=[1−(Ti−T0)/(Vi−V0)]×100; where Ti is the average tumor volume of a treatment group on a given day, TO is the average tumor volume of the treatment group on the first day of treatment, Vi is the average tumor volume of the vehicle control group on the same day with Ti, and V0 is the average tumor volume of the vehicle group on the first day of treatment.
To characterize the effects of the MMAE payload alone, we included free MMAE at molar equivalency to PDCs, and tested at 0.6 and 0.06 mg/kg, as separate arms.
To characterize the effects of the MMAE payload alone, we included free MMAE at molar equivalency to PDCs, and tested at 0.6 mg/kg.

[2] = Murine plasma stability assay; type: in vitro ADME; conditions: mouse, 2 μM, 37° C., read-out: Murine plasma stability assay, T1/2
Protocol: Frozen plasma was thawed at 37° C. and centrifuged at 4000 rpm to remove any clots and transferred to 96-well reaction plates by WuXi AppTec. Test compounds were added to the reaction plate at a final concentration of 2 μM and either stopped immediately or incubated at 37° C. for 5 minutes, 10 minutes, 30 minutes, 60 minutes, or 120 minutes. At the end of incubation, stop solution consisting of 200 ng/mL tolbutamide and 200 ng/mL labetalol in ACN was added to precipitate protein and mixed thoroughly. Samples were then transferred to a bioanalysis plate and shaken for 10 minutes prior to HPLC-MS/MS analysis of percent remaining compound.
Table 14 tabulates the plasma stability for each of the three PDCs tested.

[3] = Murine hematotoxicity assay; type: in vivo, mouse; conditions: 3 mg/kg i.v. QW×4, BALB/c mice
Protocol: (§1) Murine hematotoxicity experiments were conducted at Charles River Laboratories and the care and use of animals was conducted in accordance with the regulations of the Association for Assessment and Accreditation of Laboratory Animal Care (AAALAC). Wild type BALB/c, female, 7-8 weeks, weighing approximately 18-22 g were randomized and dosed intravenously with control or test articles at a QW×4 schedule. Dosing volume was adjusted based on body weight and was administered at 10 mL/Kg. PDCs were dissolved in 25 mM Histidine 10% sucrose pH 7 and 3 mg/kg was administered. Free MMAE payload was also tested, and similarly dissolved in 25 mM Histidine 10% sucrose pH 7 and administered to the mice at a dose of […] by i.v. injection at a QW×4 schedule. 3 days following each dose, 150 μL of whole blood was collected via submandibular method and placed in K2 EDTA tubes stored on ice. Blood neutrophil counts were performed on the day of collection by IDEXX labs. Body weights were recorded twice a week until study endpoint.
as §1, with “As outlined in the material” for “Murine hematotoxicity experiments were conducted at Charles River Laboratories”, “methods” for “the care and use”, “Example 1, wild” for “animals was conducted in accordance with the regulations of the Association for Assessment and Accreditation of Laboratory Animal Care (AAALAC). Wild”, “PDCs were dissolved in 25 mM Histidine 10% sucrose pH 7 and 3 mg/kg was administered.” left out

[4] = target: Cyno SORT1; test: SPR binding, Cyno SORT1; conditions: unconjugated peptide w/conjugation handles
Protocol: SPR analysis was performed on Series S CM5 chips (Cytiva) using a Biacore 8K instrument (Cytiva). Sensorgrams were double-referenced by subtracting the response on both a reference flow cell and a blank sample. Human SORT1 (78-755)-His (Acrobiosystems), human SORT1 (78-755)-His(GenScript), mouse SORT1 (76-753)-His (R&D Systems), rat SORT1 (76-752)-His (GenScript), and cyno SORT1 (76-753)-His (GenScript) were diluted to 20-60 μg/mL in 10 mM sodium acetate pH 4.5 buffer and immobilized onto Series S CM5 chips using amine coupling at a flow rate of 10 μL/min for 45-100 s.
For the single-cycle kinetics analysis runs, a running buffer of 1×PBS pH 7.4, 0.005% Tween-20 was used. Ten start-up cycles and a blank cycle preceded each analysis run. […] The kinetic rate constants (ka and kd) and the equilibrium binding constant (Kd) were calculated using a 1:1 kinetic binding model on the Biacore Insight Evaluation Software (Cytiva).
SPR analysis was performed on Series S CM5 chips (Cytiva) using a Biacore 8K instrument (Cytiva). […] The kinetic rate constants (ka and […]) and the equilibrium binding constant (Kd) were calculated using a 1:1 kinetic binding model on the Biacore Insight Evaluation Software (Cytiva). […] The SORT1 affinities of the conjugates were determined to be peptide 2 conjugate >peptide 1 conjugate >peptide 3 conjugate.

[5] = test system: GAPDH mRNA; test: GAPDH mRNA knockdown in HEK293 cells (RT-qPCR); type: cell-based
Protocol: (§2) These GAPDH siRNA-peptide conjugates were then evaluated in HEK293 cells and the neuronal cell line, neuro2A.

[6] = test system: GAPDH mRNA; test: GAPDH mRNA knockdown in differentiated Neuro-2a cells (RT-qPCR); type: cell-based
Protocol: as §2

[7] = target: T1, SORT1 (Sortilin), Acrobiosystems SON-H52H5 (human, UniProt Q99523 78-755, biotinylated 1:1 with NHS-PEG4 Biotin when immobilised in the protein-loaded GCI format); test: fluorescence polarization, direct titration of the FAM-labelled peptide with SORT1
T1 construct: Used in FP, GCI and the peptide microarray; also called SORT1-Ag; SORT1 antigen
T1 sequence (looked up): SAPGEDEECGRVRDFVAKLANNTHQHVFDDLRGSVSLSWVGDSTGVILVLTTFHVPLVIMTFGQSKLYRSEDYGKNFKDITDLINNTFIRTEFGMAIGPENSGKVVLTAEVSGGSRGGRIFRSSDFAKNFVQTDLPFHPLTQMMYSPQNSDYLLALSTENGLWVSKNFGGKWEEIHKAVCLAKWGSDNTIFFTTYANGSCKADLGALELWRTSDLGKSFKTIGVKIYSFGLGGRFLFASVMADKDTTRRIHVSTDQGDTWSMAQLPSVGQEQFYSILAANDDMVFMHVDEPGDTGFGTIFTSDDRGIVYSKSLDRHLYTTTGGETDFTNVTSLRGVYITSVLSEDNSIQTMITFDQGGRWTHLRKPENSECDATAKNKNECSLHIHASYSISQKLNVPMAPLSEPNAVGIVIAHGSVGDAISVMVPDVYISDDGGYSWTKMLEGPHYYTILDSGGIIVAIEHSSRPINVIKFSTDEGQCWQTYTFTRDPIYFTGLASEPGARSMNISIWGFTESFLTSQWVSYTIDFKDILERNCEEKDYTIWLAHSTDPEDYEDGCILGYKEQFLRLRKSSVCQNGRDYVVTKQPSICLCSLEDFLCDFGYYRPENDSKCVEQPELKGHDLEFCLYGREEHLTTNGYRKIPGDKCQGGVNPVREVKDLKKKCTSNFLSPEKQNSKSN
Protocol: A 12-point, two-fold dilution series of target protein was prepared in a V-bottom 96-well plate for a total volume of 25 μL.
A 10× working solution of FAM-labeled peptides was prepared in the FP buffer (1×PBS, pH 7.4, 0.1% Tween-20). An aliquot of 2.5 μL of the 10× working solution of the FAM-labeled peptides was then added to 22.5 μL of the SORT1 dilution series and pipetted to mix in a V-bottom 96-well plate. A negative control with no target protein was also prepared to assess baseline polarization of the FAM-labeled peptides. […] The data was then fitted to a One Site-Specific Binding curve in GraphPad to calculate the KD.

CCCC[C@@H]1NC(=O)[C@H](CCCNC(=N)N)NC(=O)[C@H](CCCCNC(=O)CN(C)C(=O)CN(C)C(=O)CN(C)C(=O)CN(C)C(=O)CCNC(=O)CCCC(=O)N[C@H](C(=O)N[C@@H](CCCNC(N)=O)C(=O)Nc2ccc(COC(=O)N(C)[C@H](C(=O)N[C@H](C(=O)N(C)[C@@H]([C@@H](C)CC)[C@@H](CC(=O)N3CCC[C@H]3[C@H](OC)[C@@H](C)C(=O)N[C@H](C)[C@@H](O)c3ccccc3)OC)C(C)C)C(C)C)cc2)C(C)C)NC(=O)[C@H](CC(N)=O)NC(=O)[C@H](CCC(=O)O)NC(=O)[C@@H](NC(=O)[C@H](Cc2c[nH]c3ccccc23)NC(=O)[C@H](CCCNC(=N)N)NC(C)=O)CSSC[C@@H](C(=O)N[C@@H](CCCNC(=N)N)C(=O)N[C@@H](CCC(N)=O)C(=O)N[C@H](C(=O)N[C@@H](CC(C)(C)C)C(=O)O)C(C)(C)C)NC(=O)[C@H]([C@@H](C)O)NC(=O)[C@H](Cc2ccccc2)NC1=O [Arb_cyclic_G23-PDC]
tumor growth inhibited relative to vehicle ([1]; 3 mg/kg i.v. QW×4, day 22): 68% | body weight loss (Example 8) ([1]; PDCs 3 mg/kg, free MMAE at molar equivalency (0.6 mg/kg)): body weight loss tracked each other | half-life [2]: 57.4 min | blood neutrophil counts compared to vehicle or MMAE treatment [3]: reduced neutrophil counts

CC(C)C[C@H](NC(=O)[C@H](C)NC(=O)[C@@H]1CCCN1C(=O)[C@H](CC(=O)O)NC(=O)[C@H](CCCNC(=N)N)NC(=O)[C@H](CC(C)C)NC(=O)[C@@H]1CCCN1C(=O)[C@H](C)NC(=O)[C@H](CC(=O)O)NC(=O)[C@H](Cc1c[nH]c2ccccc12)NC(=O)[C@H](CCCNC(=N)N)NC(=O)[C@@H]1CCCN1C(=O)[C@H](C)N)C(=O)N[C@@H](CCCNC(=N)N)C(=O)N[C@@H](CCC(N)=O)C(=O)N[C@H](C(=O)N[C@@H](CC1CCC1)C(=O)O)C(C)(C)C [SORT1 peptide 2]
Cyno Ka Kd [4]: 0.152 nM

CCCC[C@@H]1NC(=O)[C@H](CCCNC(=N)N)NC(=O)[C@H](CCCCN)NC(=O)[C@H](CC(N)=O)NC(=O)[C@H](CCC(=O)O)NC(=O)[C@@H](NC(=O)[C@H](Cc2c[nH]c3ccccc23)NC(=O)[C@H](CCCNC(=N)N)NC(C)=O)CSSC[C@@H](C(=O)N[C@@H](CCCNC(=N)N)C(=O)N[C@@H](CCC(N)=O)C(=O)N[C@H](C(=O)N[C@@H](CC(C)(C)C)C(=O)O)C(C)(C)C)NC(=O)[C@H]([C@@H](C)O)NC(=O)[C@H](Cc2ccccc2)NC1=O [SORT1 peptide 3] (HELM PEPTIDE1{[ac].R.W.C.E.N.K.R.[Nle].F.T.C.R.Q.[CC(C)(C)[C@H](N[*:1])C(=O)[*:2]].[CC(C)(C)C[C@H](N[*:1])C(=O)O]}$PEPTIDE1,PEPTIDE1,4:R3-12:R3$$$V2.0; N-terminus and C-terminus assumed)
Cyno Ka Kd [4]: 0.191 nM

Ac-C(bAla)(Sar)(Sar)(Sar)(Sar)APRWDAPLRDPALRQ(B13)(G48) (CXXXXXAPRWDAPLRDPALRQXX; N-methyl; non-natural residues; cyclised or stapled) [Peptide 2-GAPDH6-SPDP]
GAPDH mRNA % knockdown compared to untreated cells ([5]; HEK293 + CQ): 80% | GAPDH mRNA % knockdown compared to untreated cells ([5]; HEK293 − CQ (chloroquine)): 0% | GAPDH mRNA % knockdown compared to untreated cells ([6]; Neuro2a + CQ): 0% | GAPDH mRNA % knockdown compared to untreated cells ([6]; Neuro2a − CQ): 3%

{FAM}-QRLARLPRDLLAWPPAD-OH (also called negative control peptide) [PRGN_scr]
binding result [7]: no binding
